Assay results published in patent US20250171437A1 (Agios Pharmaceuticals,Inc., priority 2022, published 2025).

Target: T1, human PAH with the R408W mutation (A375 R408W cells) (Homo sapiens, UniProt P00439, R408W)
T1 construct: expressed in transfected cells
T1 sequence (P00439 1-452 R408W): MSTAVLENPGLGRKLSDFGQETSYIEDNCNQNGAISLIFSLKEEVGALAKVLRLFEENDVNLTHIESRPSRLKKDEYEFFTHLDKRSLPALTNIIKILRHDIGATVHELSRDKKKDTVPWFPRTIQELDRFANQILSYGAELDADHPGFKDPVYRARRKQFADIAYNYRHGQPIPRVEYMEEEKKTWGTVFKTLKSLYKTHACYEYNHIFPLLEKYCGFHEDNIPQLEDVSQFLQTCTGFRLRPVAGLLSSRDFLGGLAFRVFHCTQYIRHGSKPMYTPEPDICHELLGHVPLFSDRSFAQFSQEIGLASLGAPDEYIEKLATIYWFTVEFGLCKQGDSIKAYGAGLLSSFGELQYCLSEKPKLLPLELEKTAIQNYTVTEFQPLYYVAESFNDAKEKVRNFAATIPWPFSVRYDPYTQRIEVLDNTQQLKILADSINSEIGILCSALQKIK
Assay: Cell Based Phenylalanine Flux Assay
Details: A375 R408W cells; 24 hrs with compound, then 20 μM sepiapterin and 800 μM 13C9,15N-Phenylalanine for 4 hours; 13C-Tyrosine by LC-MS; average where tested multiple times
In short: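 Stable R408W PAH A375 cells: 24 h compound pretreatment in duplicate, then 4 h with 800 μM isotope-labelled Phe and 20 μM sepiapterin. Labelled Tyr output by LC-MS; AC50 averaged where repeated.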

Row | Compound | AC50
1 | Cc1nc(C(=O)N2CCc3[nH]cnc3[C@H]2c2nc3cccc(C)c3o2)n(C)n1 [Example 907, (S)-(1,3-dimethyl-1H-1,2,4-triazol-5-yl)(4-(7-methylbenzo[d]oxazol-2-yl)-6,7-dihydro-1H-imidazo[4,5-c]pyridin-5(4H)-yl)methanone] | 1 to 5 µM
2 | COc1cccc2oc([C@H]3c4nc[nH]c4CCN3C(=O)c3ocnc3C(F)F)nc12 [Example 430, (R)-(4-(difluoromethyl)oxazol-5-yl)(4-(4-methoxybenzo[d]oxazol-2-yl)-6,7-dihydro-1H-imidazo[4,5-c]pyridin-5(4H)-yl)methanone] | 0.5 to 1 µM
3 | O=C(c1ocnc1C(F)F)N1CCc2[nH]cnc2[C@H]1c1nc2ccc(F)cc2o1 [Example 163, (S)-(4-(difluoromethyl)oxazol-5-yl)(4-(6-fluorobenzo[d]oxazol-2-yl)-6,7-dihydro-1H-imidazo[4,5-c]pyridin-5(4H)-yl)methanone] | ≤ 0.5 µM
4 | CC(O)c1nc(Cl)c(C(=O)N2CCc3[nH]cnc3[C@H]2c2nc3cc(F)ccc3o2)o1 (single isomer, unassigned) [Example 236] | 0.5 to 1 µM
5 | O=C(CCc1ncco1)N1CCc2[nH]cnc2[C@H]1c1nc2cccc(F)c2o1 [Example 387, (S)-1-(4-(7-fluorobenzo[d]oxazol-2-yl)-6,7-dihydro-1H-imidazo[4,5-c]pyridin-5(4H)-yl)-3-(oxazol-2-yl)propan-1-one] | 0.5 to 1 µM
6 | CC(C)(O)c1nc(Br)c(C(=O)N2CCc3[nH]cnc3[C@H]2c2nc3cccc(F)c3o2)o1 [Example 263, (S)-(4-bromo-2-(2-hydroxypropan-2-yl)oxazol-5-yl)(4-(7-fluorobenzo[d]oxazol-2-yl)-6,7-dihydro-1H-imidazo[4,5-c]pyridin-5(4H)-yl)methanone] | ≤ 0.5 µM
7 | O=C(CCc1nccs1)N1CCc2[nH]cnc2[C@H]1c1nc2ccccc2o1 [Example 913, (S)-1-(4-(benzo[d]oxazol-2-yl)-6,7-dihydro-1H-imidazo[4,5-c]pyridin-5(4H)-yl)-3-(thiazol-2-yl)propan-1-one] | 0.5 to 1 µM
8 | COc1cc(F)c2oc([C@@H]3c4nc[nH]c4CCN3C(=O)c3ocnc3C(F)F)nc2c1 [Example 663, (S)-(4-(difluoromethyl)oxazol-5-yl)(4-(7-fluoro-5-methoxybenzo[d]oxazol-2-yl)-6,7-dihydro-1H-imidazo[4,5-c]pyridin-5(4H)-yl)methanone] | ≤ 0.5 µM
9 | Cn1nc(C(F)F)cc1C(=O)N1CCc2[nH]cnc2[C@@H]1c1nc2cccc(F)c2o1 [Example 734, (R)-(3-(difluoromethyl)-1-methyl-1H-pyrazol-5-yl)(4-(7-fluorobenzo[d]oxazol-2-yl)-6,7-dihydro-1H-imidazo[4,5-c]pyridin-5(4H)-yl)methanone] | 1 to 5 µM
10 | O=C(c1ocnc1C(F)F)N1CCc2[nH]cnc2[C@@H]1c1nc2cc(Br)cc(F)c2o1 [Example 574, (R)-(4-(5-bromo-7-fluorobenzo[d]oxazol-2-yl)-6,7-dihydro-1H-imidazo[4,5-c]pyridin-5(4H)-yl)(4-(difluoromethyl)oxazol-5-yl)methanone] | ≤ 0.5 µM
11 | COc1cccc2oc([C@@H]3c4nc[nH]c4CCN3C(=O)c3cnco3)nc12 [Example 621, (S)-(4-(4-methoxybenzo[d]oxazol-2-yl)-6,7-dihydro-1H-imidazo[4,5-c]pyridin-5(4H)-yl)(oxazol-5-yl)methanone] | 0.5 to 1 µM
12 | Cn1cc(-c2nnc(C(=O)N3CCc4[nH]cnc4[C@H]3c3nc4c(F)ccc(F)c4o3)o2)cn1 [Example 518, (S)-(4-(4,7-difluorobenzo[d]oxazol-2-yl)-6,7-dihydro-1H-imidazo[4,5-c]pyridin-5(4H)-yl)(5-(1-methyl-1H-pyrazol-4-yl)-1,3,4-oxadiazol-2-yl)methanone] | ≤ 0.5 µM
13 | O=C(c1nnc(-c2ccn(C(F)F)n2)o1)N1CCc2[nH]cnc2[C@@H]1c1nc2ccccc2o1 [Example 845, (R)-(4-(benzo[d]oxazol-2-yl)-6,7-dihydro-1H-imidazo[4,5-c]pyridin-5(4H)-yl)(5-(1-(difluoromethyl)-1H-pyrazol-3-yl)-1,3,4-oxadiazol-2-yl)methanone] | 1 to 5 µM
14 | CN1CCN(c2ccc3c(C(=O)N4CCc5[nH]cnc5[C@@H]4c4nc5cc(F)ccc5o4)cnn3c2)CC1(C)C [Example 140, (R)-(4-(5-fluorobenzo[d]oxazol-2-yl)-6,7-dihydro-1H-imidazo[4,5-c]pyridin-5(4H)-yl)(6-(3,3,4-trimethylpiperazin-1-yl)pyrazolo[1,5-a]pyridin-3-yl)methanone] | ≥ 5 µM
15 | Cc1nc(-c2ccccn2)oc1C(=O)N1CCc2[nH]cnc2[C@@H]1c1nc2cc(F)ccc2o1 [Example 32, (R)-(4-(5-fluorobenzo[d]oxazol-2-yl)-6,7-dihydro-1H-imidazo[4,5-c]pyridin-5(4H)-yl)(4-methyl-2-(pyridin-2-yl)oxazol-5-yl)methanone] | 1 to 5 µM
16 | O=C(c1oc(N2CCC(F)CC2)nc1C(F)F)N1CCc2[nH]cnc2[C@@H]1c1nc2cc(F)ccc2o1 [Example 402, (R)-(4-(difluoromethyl)-2-(4-fluoropiperidin-1-yl)oxazol-5-yl)(4-(5-fluorobenzo[d]oxazol-2-yl)-6,7-dihydro-1H-imidazo[4,5-c]pyridin-5(4H)-yl)methanone] | 1 to 5 µM
17 | COc1ccc2c(C(=O)N3CCc4[nH]cnc4[C@H]3c3nc4c(F)cccc4o3)cnn2c1 [Example 539, (S)-(4-(4-fluorobenzo[d]oxazol-2-yl)-6,7-dihydro-1H-imidazo[4,5-c]pyridin-5(4H)-yl)(6-methoxypyrazolo[1,5-a]pyridin-3-yl)methanone] | ≤ 0.5 µM
18 | CC(C)(O)c1nc(C(F)F)c(C(=O)N2CCc3[nH]cnc3[C@H]2c2nc3cc(F)ccc3o2)o1 (single isomer, unassigned) [Example 107] | ≤ 0.5 µM
19 | CC(C)(O)c1ncc(C(=O)N2CCc3[nH]cnc3[C@H]2c2nc3cccc(F)c3o2)o1 [Example 713, (S)-(4-(7-fluorobenzo[d]oxazol-2-yl)-6,7-dihydro-1H-imidazo[4,5-c]pyridin-5(4H)-yl)(2-(2-hydroxypropan-2-yl)oxazol-5-yl)methanone] | 0.5 to 1 µM
20 | Cn1cncc1-c1nc(C(F)F)c(C(=O)N2CCc3[nH]cnc3[C@H]2c2nc3ccccc3o2)o1 [Example 764, (S)-(4-(benzo[d]oxazol-2-yl)-6,7-dihydro-1H-imidazo[4,5-c]pyridin-5(4H)-yl)(4-(difluoromethyl)-2-(1-methyl-1H-imidazol-5-yl)oxazol-5-yl)methanone] | ≤ 0.5 µM
21 | O=C(CCc1ncco1)N1CCc2[nH]cnc2[C@@H]1c1nc2cccc(F)c2o1 [Example 388, (R)-1-(4-(7-fluorobenzo[d]oxazol-2-yl)-6,7-dihydro-1H-imidazo[4,5-c]pyridin-5(4H)-yl)-3-(oxazol-2-yl)propan-1-one] | ≥ 5 µM
22 | CC1CN(C(=O)c2ocnc2C(F)F)[C@H](c2nc3cccc(F)c3o2)c2nc[nH]c21 (single isomer, unassigned) [Example 804] | ≤ 0.5 µM
23 | Cn1nc(Br)nc1C(=O)N1CCc2[nH]cnc2[C@H]1c1nc2c(F)cccc2o1 [Example 471, (S)-(3-bromo-1-methyl-1H-1,2,4-triazol-5-yl)(4-(4-fluorobenzo[d]oxazol-2-yl)-6,7-dihydro-1H-imidazo[4,5-c]pyridin-5(4H)-yl)methanone] | 0.5 to 1 µM
24 | O=C(c1cnn2cc(N3CCN(C4CC4)CC3)ccc12)N1CCc2[nH]cnc2[C@@H]1c1nc2cc(F)ccc2o1 [Example 134, (R)-(6-(4-cyclopropylpiperazin-1-yl)pyrazolo[1,5-a]pyridin-3-yl)(4-(5-fluorobenzo[d]oxazol-2-yl)-6,7-dihydro-1H-imidazo[4,5-c]pyridin-5(4H)-yl)methanone] | ≥ 5 µM

Same assay, conditions: A375 cells expressing R408W PAH; 24 hrs with compound, then 20 μM sepiapterin and 800 μM 13C9,15N-Phenylalanine for 4 hours; 13C-Tyrosine by LC-MS; average where tested multiple times

Row | Compound | AC50
25 | Cn1nc(C(C)(C)C)cc1C(=O)N1CCc2[nH]cnc2C1c1nc2cccc(F)c2o1 (centres unmarked) | 1 to 5 µM
26 | Cc1nc(C(C)(C)O)oc1C(=O)N1CCc2[nH]cnc2C1c1nc2ccc(F)cc2o1 (centres unmarked) | 1 to 5 µM
27 | Cc1nc(C(=O)N2CCc3[nH]cnc3C2c2nc3ccccc3o2)n(C)n1 (centres unmarked) | 1 to 5 µM
28 | CC(=O)Cn1cc(C(=O)N2CCc3[nH]cnc3[C@H]2c2nc3cc(F)ccc3o2)cn1 (single isomer, unassigned) | ≥ 5 µM
29 | CC(C)(O)c1ncc(C(=O)N2CCc3[nH]cnc3C2c2nc3ccc(F)cc3o2)o1 (centres unmarked) | 1 to 5 µM
30 | Cn1nc(C(F)F)nc1C(=O)N1CCc2[nH]cnc2C1c1nc2c(F)cccc2o1 (centres unmarked) | 1 to 5 µM
31 | O=C(c1ccn(CC(F)F)n1)N1CCc2[nH]cnc2C1c1nc2cccc(F)c2o1 (centres unmarked) | 1 to 5 µM
32 | O=C(c1cnn2cc(N3CCC(O)CC3)ccc12)N1CCc2[nH]cnc2C1c1nc2c(F)cccc2o1 (centres unmarked) | 1 to 5 µM
33 | O=C(c1cnn2cc(F)ccc12)N1CCc2[nH]cnc2C1c1nc2cc(F)ccc2o1 (centres unmarked) | ≥ 5 µM
34 | Cc1nc(CN(C)C)oc1C(=O)N1CCc2[nH]cnc2C1c1nc2cc(F)ccc2o1 (centres unmarked) | ≥ 5 µM
35 | COCCNc1nnc(C(=O)N2CCc3[nH]cnc3C2c2nc3cc(F)ccc3o2)o1 (centres unmarked) | ≥ 5 µM
